Results from US12044680B2, “Peptide exchange system and method” (priority 2016, dated 2024).
Like-named read-outs stand apart in the source and are kept apart here. Ends that are not written are not given here. * marks the point of attachment. DNP = dinitrophenol (DNP) tag on lysine, O=[N+]([O-])c1ccc(*)c([N+](=O)[O-])c1; Dnp = O=[N+]([O-])c1ccc(*)c([N+](=O)[O-])c1

Assays:
[1] = target: T1, HLA-A*02:01 tetramers with exiting peptide ILKEKK(DNP)VHGV (Homo sapiens, UniProt P04439, D140Y/D185E/D98H/E176V/E277Q/G131W/G231S/I119V/I121R/I166T/I218V/L300P/L318F/N151K/N90K/P208A/P217A/Q86G/Q94H/R138H/R169H/T345S); experiment: HLA-A*02:01 peptide exchange quantitation; format: binding; settings: entering peptide 20 μM final, 4 hours; HLA-A*02:01 tetramer
T1 construct: prepared as known in the art, for instance by deletion of the transmembrane domain and the cytoplasmic domain; made in house
Method: Peptide Exchange Procedure: 50 μL of the tetramer solution is combined with 1 μL of peptide exchange factor, such as glycyl methionine, (resulting in a final peptide exchange factor concentration of 5-20 mM) and 1 μL of the peptide solution and the resulting solution was mixed, then incubated at room temperature for four hours.
Sandwich magnetic bead immunoassay: 20 μL capture beads is pipetted into wells 1-4 on a 96-well plate. 5 μL assay buffer is pipetted into well 2. 5 μL of exchanged tetramer is pipetted into well 4. Additional exchanged tetramers may be pipetted into wells 5 and up. The plate is protected from light and shaken for 45 min at 550 rpms/min. 150 μL of assay buffer is dispensed into each well. The plate is placed on a plate magnet and the beads are permitted to sediment for at least 5 minutes.
Separately, a preparation of the FITC-conjugated anti-tag antibody is prepared at 10 μg/mL. 25 μL of the FITC-conjugated anti-tag antibody is pipetted into each well except well 1, and the plate is again protected from light and shaken for 45 min at 550 rpms/min.
150 μL of assay buffer is dispensed into each well, and the plate is placed on a plate magnet. The beads are permitted to sediment for at least 5 minutes. The beads are resuspended in sheath fluid and transferred to labeled flow cytometer tubes (referred to herein by the number of the well they are drawn from), which are then analyzed on a flow cytometer.
Flow Cytometry Analysis: Unused magnetic beads are used to set FSC (forward-scattered light) and SSC (side-scattered light) voltages and gains such that a live gate selects single beads and excludes doublets and larger clumps, see FIG. 1A. […] Tube 1 is run to perform compensation in FL1 in order to eliminate fluorochrome interference in the FITC channel, see FIG. 1C. The FL1 MFI is set to the first log decade, close to that obtained with beads only. Tube 2, which contains beads that have captured no tetramer and therefore no tagged peptide, is run to calibrate the level for 0% tagged peptide, i.e. 100% peptide exchange (see FIG. 1D). In the exemplary data provided here, the MFI is 0.287. Tube 3, which contains a solution where all tetramers display the original tagged peptide, is run to calibrate the level for 100% tagged peptide, i.e. 0% peptide exchange (see FIG. 1E). In the exemplary data provided here, the MFI is 20.4. Tubes 4 and up are run to evaluate the samples. Peptide exchanged tetramers will display various quantities of tagged peptides, depending on their binding affinities to HLA-A*02:01 molecules. Therefore, the FL1 MFI measured will be intermediary between MFI values obtained with tubes 2 and 3. See FIG. 1F, where in the exemplary data provided here, the MFI is 9.37.
(§1) Peptide exchange data were obtained after incubating peptides (20 μM final) with tetramer for 4 hours, then followed by capture with anti HLA-ABC beads and staining with an anti-DNP FITC antibody.

[2] = target: T2, HLA-A*24:02 tetramers with exiting peptide TFQRK(DNP)PAAF (Homo sapiens, UniProt P04439, D101N/D140Y/D185E/E176V/E190D/F33S/G103R/G107R/I119L/I121M/I306V/K335N/L105A/L180Q/L300P/N151K/N90K/Q86E/Q94H/R106L/R138H/R89G/T104I/T345S/V100E/W191G/Y123F); experiment: HLA-A*24:02 peptide exchange quantitation; format: binding; settings: competing peptide 20 μM final, 4 hours; HLA-A*24:02 tetramer
T2 construct: prepared as known in the art, for instance by deletion of the transmembrane domain and the cytoplasmic domain; made in house
Method: as §1

[3] = target: T3, HLA-A*02:01 tetramers (Homo sapiens, UniProt P04439, D140Y/D185E/D98H/E176V/E277Q/G131W/G231S/I119V/I121R/I166T/I218V/L300P/L318F/N151K/N90K/P208A/P217A/Q86G/Q94H/R138H/R169H/T345S); experiment: Comparison of exiting peptides: peptide exchange on HLA-A*02:01 tetramers against […]; format: binding; settings: GM 10 mM; YLLEFTPPV at 10 and 1 μg/mL; compared with ILKEK(DNP)VHGV
T3 construct: prepared as known in the art, for instance by deletion of the transmembrane domain and the cytoplasmic domain; made in house
Method: Peptide exchange was performed using two HLA-A*02:01 tetramers at 280 μg/mL made with peptides ILKEKK(DNP)VHGV (SEQ ID NO: 3) and ILKEK(DNP)VHGV (SEQ ID NO: 4). […] Tetramers were captured with beads conjugated with an anti HLA-ABC specific antibody at 10 μg/mL.

[4] = target: T4, HLA-A*02:01 Tetramers containing exiting peptide ILKEKK(DNP)VHGV (Homo sapiens, UniProt P04439, D140Y/D185E/D98H/E176V/E277Q/G131W/G231S/I119V/I121R/I166T/I218V/L300P/L318F/N151K/N90K/P208A/P217A/Q86G/Q94H/R138H/R169H/T345S); experiment: Quantified peptide exchange assay of vaccine and individual peptide; format: binding
T4 construct: prepared as known in the art, for instance by deletion of the transmembrane domain and the cytoplasmic domain; made in house
Method: Quantified Peptide Exchange Assay: HLA-A*02:01 Tetramers were prepared containing exiting peptide ILKEKK(DNP)VHGV (SEQ ID NO: 3). Peptide exchange was performed against (a) the peptide prepared individually in a buffered solution or (b) in the DPX-Survivac vaccine prepared in an aqueous formulation. HLA-A*02:01 tetramer, and peptide exchange factor glycylmethionine were mixed with each peptide to be tested. Peptide exchange was then quantified by the flow cytometric sandwich immunoassay using magnetic capture beads.
Comparison of Peptide Exchange Assay to T2 HLA-A2 Shift assay: The peptide exchange assay described herein and the T2 HLA-A2 shift assay were conducted on various amounts of peptide per reaction. The results are presented in FIGS. 12D (T2 HLA-A2 shift assay) and 12E (peptide exchange assay), with the three independent repeats shown in diamonds, squares, and triangles. The T2 Shift assay provides a high degree of linearity when applied to the samples containing 10 μg/reaction to 110 μg/reaction of SurA2.M peptide.

[5] = target: T5, H-2 Kb tetramers (Mus musculus, UniProt P01901); experiment: Selection of exiting peptide: peptide exchange on H-2 Kb tetramers with competing peptides; format: binding, murine; settings: H-2 Kb tetramers 280 μg/mL; competing peptides 10 μg/mL
T5 construct: prepared as known in the art, for instance by deletion of the transmembrane domain and the cytoplasmic domain; made in house
T5 sequence (P01901 22-305 limits assumed): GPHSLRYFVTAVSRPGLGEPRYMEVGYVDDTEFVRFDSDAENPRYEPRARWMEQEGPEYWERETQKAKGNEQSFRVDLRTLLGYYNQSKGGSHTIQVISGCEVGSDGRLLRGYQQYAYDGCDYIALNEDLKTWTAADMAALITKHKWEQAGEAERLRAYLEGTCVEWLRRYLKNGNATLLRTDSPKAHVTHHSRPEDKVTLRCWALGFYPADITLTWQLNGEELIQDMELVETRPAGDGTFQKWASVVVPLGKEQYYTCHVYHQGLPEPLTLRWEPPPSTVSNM
Method: Peptide exchange was performed using two H-2 Kb tetramers at 280 jig/mL that were made with peptides MTYK(DNP)FPVT (SEQ ID NO: 1) and YTVK(DNP)FALV (SEQ ID NO: 2). Exchange was performed in the presence of competing peptides at 10 μg/mL. Tetramers were captured with beads conjugated with an anti H-2 Kb specific antibody. Detection was performed with a FITC-conjugated anti-DNP antibody at 10 μg/mL. The results are depicted in FIG. 6, where the exiting peptides are labeled as follows: […]

[6] = target: H-2 Kb tetramers (PE, APC or BV421) with exiting peptide TFQRK(DNP)PAAF (Mus musculus, UniProt P01901); settings: glycyl-methionine, 4 hours room temperature; for Exchange rate, APC: H-2 Kb APC tetramer; for Exchange rate, BV421: H-2 Kb BV421 tetramer; for Exchange rate, PE: H-2 Kb PE tetramer
Method: The mixtures were incubated for 4 hours at room temperature, protected from light.
20 μL of magnetic capture beads were added to wells of a v-bottom 96-well plate for each tested peptide plus wells for control samples. Each test well received 5 μL from the peptide exchange samples. The plate was shaken for 45 minutes at 550 rpm, room temperature, protected from light. After bead rinse, wells received 25 μL of 1× exiting peptide antibody. The plate was shaken for 45 minutes at 550 rpm, room temperature, protected from light. Beads were rinsed, resuspended in 1× assay buffer and run on a FC500 Flow Cytometer. Single beads were gated on FSC vs. SSC and MFI were measured on 500 events per test. Peptide exchange rate was calculated using a calibration curve generated with MFI values from controls.

Substance: ALALEVGEL
- % peptide exchange [1]: 85.1%

Substance: ALLAVGATK
- % peptide exchange [1]: 25.7%

Substance: AMAPRTLLL
- % peptide exchange [2]: 81.62%

Substance: ATDALMTGY
- % peptide exchange [2]: 7.74%

Substance: ATVQGQNLK
- % peptide exchange [1]: 27.9%

Substance: AVLDGLLSL
- % peptide exchange [1]: 90.7%

Substance: CINGVCWTV
- % peptide exchange [1]: 85.3%

Substance: CSLWNGPHL
- % peptide exchange [1]: 55.2%

Substance: EYILSLEEL
- % peptide exchange [1]: 24.2%

Substance: FLSELTQQL
- % peptide exchange [2]: 23.65%

Substance: FLYDDNQRV
- % peptide exchange [1]: 91.2%

Substance: GLADQLIHL
- % peptide exchange [1]: 91.4%
- % peptide exchange [2]: 0.86%

Substance: GLAVVTHGL
- % peptide exchange [1]: 91.0%

Substance: GYSLKLSKL
- % peptide exchange [2]: 37.93%

Substance: ILKEKK(Dnp)VHGV
- Performance of the exiting peptide in peptide exchange [3]: performs better in peptide exchange

Substance: IMQIMPYGC
- % peptide exchange [1]: 59.9%

Substance: IMQLMPFGC
- % peptide exchange [1]: 40.9%

Substance: IRLRPGGKK
- % peptide exchange [1]: 25.0%

Substance: IYSTVASSL
- % peptide exchange [2]: 100.98%

Substance: LMLGEFLKL [SurA2.M]
- Peptide exchange rate, individually in buffered solution versus in the vaccine ([4]; three independent repeats, Student's t-test at p<0.05): not statistically distinguishable
- Upper limit of quantification of the peptide exchange assay ([4]; various amounts of peptide per reaction): below 0.2 μg/reaction

Substance: LNMADKKET
- % peptide exchange [2]: 10.32%

Substance: LTLGEFLKL
- % peptide exchange [1]: 43.6%

Substance: MTYK(DNP)FPVT
- Exchangeability of tetramers built with the exiting peptide [5]: allowed exchange with a wide range of peptides

Substance: RAHYNIVTF
- % peptide exchange [2]: 85.58%

Substance: RIKDFLRNL
- % peptide exchange [1]: 34.0%

Substance: RVRAYTYSK
- % peptide exchange [2]: 10.32%

Substance: RYMRWTYRF
- % peptide exchange [2]: 101.29%

Substance: SIYRYYGL [Reference Peptide]
- Exchange rate, APC ([6]; Reference Peptide 2 μM): 97.08
- Exchange rate, APC ([6]; Reference Peptide 20 μM): 99.13
- Exchange rate, BV421 ([6]; Reference Peptide 2 μM): 90.56
- Exchange rate, BV421 ([6]; Reference Peptide 20 μM): 97.34
- Exchange rate, PE ([6]; Reference Peptide 2 μM): 92.72
- Exchange rate, PE ([6]; Reference Peptide 20 μM): 100

Substance: SLPPPGTRV
- % peptide exchange [1]: 86.6%

Substance: SYVPSAEQI
- % peptide exchange [1]: 25.0%

Substance: WMHHNMDLI
- % peptide exchange [1]: 89.2%

Substance: WMHKVPASL
- % peptide exchange [1]: 87.9%

Substance: YLLEFTPPV
- % peptide exchange [1]: 91.9%

Substance: YTVK(DNP)FALV
- Exchangeability of tetramers built with the exiting peptide [5]: not possible
